Patent US9415069B2, “Immunosuppressive cells and methods of making and using thereof” (National Health Research Institutes, priority 2012, dated 2016)
Entries after “also recorded” stand apart in the source; their conditions may differ.

Legend:
[1] = tested on: human monocyte-derived dendritic cells (MDDCs); assay: Surface marker phenotype of human MDDCs by flow cytometry; assay type: cell-based; details: for effect on CD40 expression: human iMDDCs supplemented with GRO isoform, day 7
Procedure: Human monocyte-derived dendritic cells (MDDCs) were generated from leukaphereses obtained from healthy donors. Peripheral blood mononuclear cells (PBMCs) were purified by Fycoll-Hypaque Plus (GE Health-Pharmacia, Uppsala, Sweden) density centrifugation. CD14^+ monocytes were isolated using the human CD14^+ Cell Isolation Kit (MACS, Miltenyi Biotec, Inc., Auburn, Calif., USA) according to the manufacturer's instructions. The purified CD14^+ cells (1×10^6/mL) were subsequently cultured in 2 mL MSC-CM or α-MEM completed medium with 10% pooled AB-type human serum supplemented with rhGM-CSF (80 ng/mL) and rhIL-4 (80 ng/mL) (Peprotech, NJ) in the presence or absence of GRO chemokines to induce their differentiation into DCs. An additional 1 mL of medium containing the same concentrations of rhGM-CSF and rhIL-4 with or without GRO chemokines was added to each group of cells on day 3. Half-volume of culture medium was replaced with an equal volume of fresh medium containing the same concentrations of rhGM-CSF and rhIL-4 on day 5. Maturation of MDDCs (mature DCs, mMDDCs) was induced by adding 1 μg/mL LPS to the culture medium of iMDDCs on day 5 and cells were further cultured for another 48 hours. Phenotypic changes in immature DCs (iMDDCs) and mature DCs (mMDDCs) were monitored by FACS analysis on day 7. The study protocols were approved by the Institutional Review Board of Human Subject Research Ethics Committee of Academia Sinica (AS-IRB01-10113) and the Institutional Review Board of Research Ethics Committee of National Health Research Institutes (EC 1001101).
(§1) The phenotypic profiles of monocytes, iMDDCs and mMDDCs were obtained by staining 1×10^5 cells with fluorochrome-labeled antibodies (Abs) against CD11c, HLA-DR, CD80, CD86, CD83, CD40, and DC-SIGN. The fluorescence intensity was measured by flow cytometry. The corresponding isotype-matched controls used were FITC-IgG1, FITC-IgG2a, PE-IgG2a, and PE-IgG2b (BD Biosciences, San Jose, Calif., USA). Surface-labeled cells were analyzed using a FACS Calibur-flow cytometer (BD Biosciences). For cell purification, sorting was performed on a FACS Aria cell sorter (BD Biosciences). The purity of individual sorted cell populations was greater than 95%.

[2] = tested on: immature MDDCs (iDCs); assay: Endocytosis test (FITC-dextran uptake); assay type: cell-based, human
Procedure: The endocytic activity of iMDDCs or mMDDCs was measured by analyzing the cellular uptake of FITC-dextran (40 kD, FD40S, Sigma-Aldrich) as quantified by flow cytomerty. Cells (5×10^4 cells/sample/96 well V bottom plate) were incubated in RPMI-1640 medium with 1 mg/mL FITC-dextran for 30 min at 37° C. After incubation, cells were washed twice with staining buffer to remove free reagent then fixed with 1% paraformaldehyde. The signal from FITC-dextran endocytosed by cells was analyzed by FACS. Data analysis was performed using the FlowJo version 5.7.2 software. The signal obtained for cells incubated with medium in the absence of FITC-dextran was used as negative control.

[3] = tested on: CD11b+ Gr-1+ BMDCs; assay: ARG-1 and iNOS expression in mouse BMDCs; assay type: cell-based
Procedure: Total RNA was extracted with the Trizol reagent and converted to cDNA using a ReverTra Ace set (Toyobo Life Science, Osaka, Japan), according to manufacturer's instructions. Real-time PCR analysis was performed using an ABI Prism 7900 system (Applied Biosystems, Foster City, Calif., USA). Samples were treated according to the following program: […], 94° C. for 10 min, and 40 cycles of 95° C. for 15 s and 60° C. for 1 min. Analyses were performed in triplicate. For each sample, the cycle threshold (Ct) values were determined. Results were normalized to the GAPDH gene on the same plate. The levels of mRNA expression in different cell groups were calculated using the 2ΔCt method. Intron-spanning primers specific for each gene were designed. Their sequences are as follows: human GAPDH, […] (forward primer, F, SEQ ID NO:4), […] (reverse primer, R, SEQ ID NO:5); human IL-10, […] (F, SEQ ID NO:6), […] (R, SEQ ID NO:7); human IDO, […] (F, SEQ ID NO:8), TGACCTTTGCCCCACACAT (R, SEQ ID NO:9); human matrix-metallopeptidase-9 (MMP-9), […] (F, SEQ ID NO:10), […] (R, SEQ ID NO:11); human IL-4, […] (F, SEQ ID NO:12), GCCTGTGGAACTGCTGTGC (R, SQ ID NO:13); human IL-12p40, CGGTCATCTGCCGCAAA (F, SEQ ID NO:14), […] (R, SEQ ID NO:15); human TNF-α, […] (F, SEQ ID NO:16), CAGGCAGAAGAGCGTGGTG (R, SEQ ID NO:17); human IFN-γ, […] (F, SEQ ID NO:18), […] (R, SEQ ID NO:19); human Cox2, […] (F, SEQ ID NO:20), […] (R, SEQ ID NO:21); human PD-L1, […] (F, SEQ ID NO:22), […] (R, SEQ ID NO:23); human PD-L2, […] (F, SEQ ID NO:24), […] (R, SEQ ID NO:25); human TGF-β, […] (F, SEQ ID NO:26), […] (R, SEQ ID NO:27); human IL-6, […] (F, SEQ ID NO:28), […] (R, SEQ ID NO:29); IL-1β, […] (F, SEQ ID NO:30), […] (R, SEQ ID NO:31); mouse GAPDH, GATGCAGGGATGATGTTC (F, SEQ ID NO:32), TGCACCACCAACTGCTTAG (R, SEQ ID NO:33); mouse Arginase 1(Arg-1), […] (F, SEQ ID NO:34), […] (R, SEQ ID NO:35); mouse iNOS, […] (F, SEQ ID NO:36), […] (R, SEQ ID NO:37); mouse IFN-γ, […] (F, SEQ ID NO:38), […] (R, SEQ ID NO:39).
(§2) Murine bone marrow-derived dendritic cells (BM-DCs) were harvested and differentiated into dentritic cells as previously described (Song et al., 2011). Briefly, bone marrow cells from C57BL/6 mice were cultured at a density of 2×10^5 cells/mL in petri dishes containing 10 mL of complete RPMI-1640 medium with 200 U/mL (20 ng/mL) recombinant mouse GM-CSF in the presence or absence of recombinant mouse GRO chemokine. On day 3, half of the volume of the culture medium was replaced by complete RPMI medium containing 20 ng/mL of […] combined with or without GRO. On day 6, BMDCs from the different treatment groups were collected from each dish, washed and characterized.

[4] = tested on: MDDCs; assay: ELISA of cytokines in MDDC supernatants; assay type: cell-based, human; details: MDDCs differentiated with GRO-γ, recultured 3 days
Procedure: Supernatants from MDDCs alone (5×10^4), CD3^+ purified T-cells alone (isolated by the human CD3^+ Cell Isolation Kit, MACS, Miltenyi Biotec, Inc., 5×10^5), or MDDCs (5×10^4) co-cultured with CD3^+ purified T-cells (5×10^5) were harvested, and the concentrations of IL-4, IL-10, IL-12, INF-γ, IL-6 and TNF-α in supernatants were determined in triplicates using commercial ELISA kits according to the manufacturer's protocols (R&D systems).

[5] = tested on: MDDCs; assay: Real-time PCR of selected genes in MDDCs from 7-day cultures; assay type: cell-based, human; details: MDDC differentiation in presence of GRO-γ
Procedure: Total RNA was extracted with the Trizol reagent and converted to cDNA using a ReverTra Ace set (Toyobo Life Science, Osaka, Japan), according to manufacturer's instructions. Real-time PCR analysis was performed using an ABI Prism 7900 system (Applied Biosystems, Foster City, Calif., USA). Samples were treated according to the following program: 5° C. for 2 min, 94° C. for 10 min, and 40 cycles of 95° C. for 15 s and 60° C. for 1 min. Analyses were performed in triplicate. For each sample, the cycle threshold (Ct) values were determined. Results were normalized to the GAPDH gene on the same plate. The levels of mRNA expression in different cell groups were calculated using the 2ΔCt method. Intron-spanning primers specific for each gene were designed. Their sequences are as follows: human GAPDH, […] (forward primer, F, SEQ ID NO:4), […] (reverse primer, R, SEQ ID NO:5); human IL-10, […] (F, SEQ ID NO:6), […] (R, SEQ ID NO:7); human IDO, […] (F, SEQ ID NO:8), TGACCTTTGCCCCACACAT (R, SEQ ID NO:9); human matrix-metallopeptidase-9 (MMP-9), […] (F, SEQ ID NO:10), […] (R, SEQ ID NO:11); human IL-4, […] (F, SEQ ID NO:12), GCCTGTGGAACTGCTGTGC (R, SQ ID NO:13); human IL-12p40, CGGTCATCTGCCGCAAA (F, SEQ ID NO:14), […] (R, SEQ ID NO:15); human TNF-α, […] (F, SEQ ID NO:16), CAGGCAGAAGAGCGTGGTG (R, SEQ ID NO:17); human IFN-γ, […] (F, SEQ ID NO:18), […] (R, SEQ ID NO:19); human Cox2, […] (F, SEQ ID NO:20), […] […]

[6] = tested on: mature MDDCs co-cultured with allogeneic T cells; assay: MLR assay (allogeneic T-cell proliferation, [3H]-thymidine); assay type: cell-based, human
Procedure: Monocyte-derived cells (3×10^4) at different stages of differentiation were irradiated at 30 Gy using an X-ray biological irradiator (X-ray R-2000, Rad Source Technologies, Inc, Alpharetta, Ga., USA) and then cultured with purified allogenic CD3 T cells (1:10) in complete culture medium in 96-well U-bottom plate. X-ray irradiated myeloid cells and allogenic T lymphocytes were placed in a humidified CO2 incubator at 37° C. After 96 hours, [^3H]-thymidine (1 μCi) was added to each well containing either monocytes-, iMDDCs-, or mMDDCs mixed with T cells, and further incubated for 16 hours. Cells were then harvested using a Filtermate 96-well harvester and radioactivity (cpm) measured as an index of cell proliferation in a Packard microplate scintillation and luminescence counter (Perkin-Elmer-Packard; Waltham, Mass., USA).

[7] = tested on: BMDCs from C57BL/6 mice; assay: FACS of CD11b+ Gr-1+ cells in mouse BMDCs; assay type: cell-based; details: GM-CSF with or without GRO-γ, six days
Procedure: as §1, §2

[8] = tested on: IDO in iDCs; assay: Intracellular IDO staining, confocal microscopy; assay type: cell-based, human; details: iDCs differentiated in presence of GRO-γ
Procedure: MDDCs were generated in the presence or absence of GRO-γ and then analyzed for the intracellular expression of the IDO protein. Cells (5×10^4) were plated onto poly-L-lysine-coated glass slides for 15 min, and washed twice quickly with 0.5 mL PBS. Cells were fixed by adding 0.5 mL of 1% paraformaldehyde (Sigma-Aldrich) for 10 minutes, and then subsequently washed with PBS three times and incubated in 0.5 mL of 1% BSA/PBS for 30 min at room temperature. Cells were washed with 0.1% (v/v) NP-40/PBS three times, and then incubated with 0.5% BSA/PBS containing 1:50 diluted mouse anti-human IDO antibody (Chemicon Inc, Temecula, Calif., USA) at room temperature for 1 h. Cells were further washed with 0.1% (v/v) NP-40/PBS to remove unbound antibody, and then incubated with 1:150 diluted anti-mouse IgG conjugated with DyLight 488 (Sigma-Aldrich) for 1 h at room temperature. After three final washes with 0.1% (v/v) NP-40/PBS, the slides were mounted with 10% Glycerol/PBS and sealed with nail polish. Fluorescent images were captured using a Leica TCS SP5 camera (Leica Camera AG, Solms, Germany).

Compound	effect on CD40 expression [1]	endocytic activity of iDCs ([2]; GRO-γ 250 ng/mL)	protein expression and enzymatic activity of Arg-1 and iNOS ([3]; GRO-γ treated BMDCs)	mRNA levels of ARG-1 and iNOS ([3]; GRO-γ-treated BMDCs vs BMDCs)	expression of the Arg-1 gene, the iNOS gene, and the MDSC-related genes ([3]; presence of GRO-γ during BMDC differentiation)	levels of IFN-γ and IL-12 in supernatants [4]	levels of IL-4 and IL-10 in supernatants [4]	surface expression of CD40, CD83, CD80, CD11c, CD86 and DC-SIGN ([1]; iDCs, recombinant GRO-γ 250 ng/mL vs absence)	DC-SIGN expression ([1]; mDCs, addition of GRO-γ)	expression levels of IL-10, IL-4, TGF-β, IL-1β, IL-6, COX2, PD-L1, PD-L2, MMP-9 and IDO genes [5]	mRNA levels of TNF-α, IFN-γ and IL-12 [5]	ability of mDCs to stimulate T-cell proliferation in mixed lymphocyte reaction ([6]; GRO-γ 250 ng/mL)	percentage (frequency) of double positive CD11b+ Gr-1+ cells in BMDCs [7]	intracellular expression of IDO [8]	blocking of GRO-γ effect on endocytic activity of iDCs ([2]; SB225002 250 nM plus GRO-γ)	reversal of induction of ARG-1 and iNOS genes ([3]; GM-CSF/GRO-γ/SB225002 treated BMDCs)	reversal of suppressive effect of GRO-γ on selected surface markers ([1]; iDCs and mDCs, SB225002 250 nM pretreatment 30 min plus GRO-γ)	DC-SIGN expression ([1]; iDCs and mDCs, addition of SB225002 with GRO-γ)	blocking of GRO-γ effect on ability of mDCs to stimulate T-cell proliferation ([6]; SB225002 250 nM plus GRO-γ)
GRO-α: recombinant human GRO chemokine CXCL1 (SEQ ID NO:1), PeproTech	significant inhibitory effects																		
GRO-γ: recombinant GRO chemokine CXCL3 (SEQ ID NO:3); human from PeproTech, mouse from R&D Systems	significant inhibitory effects	significantly down-regulated	increased	elevated	up-regulated	reduced levels	elevated levels	significantly reduced	not affected	significantly up-regulated	significantly down-regulated	significantly down-regulated	did not depend on the presence of GRO-γ; also recorded: similar	increase in intracellular expression					
O=C(Nc1ccc([N+](=O)[O-])cc1O)Nc1ccccc1Br [SB225002, N-(2-Hydroxy-4-nitrophenyl)-N′-(2-bromophenyl) urea, reference compound]															blocked	reversed the induction	significantly reversed	not affected	blocked
